Reference: patent EP4371556B1, “ANGIOTENSIN(1-7) PHARMACEUTICAL COMPOSITIONS FOR INHALATION” (Explicat Pharma GmbH, priority 2022, dated 2026)

Test: Phase solubility analysis (Higuchi-Connors plot) with HPβCD
Format: physicochemical
Settings: different concentrations of HPβCD in isotonic saline solutions
Excerpt: In an attempt to solubilize the peptide, the effect of cyclodextrins was investigated. In particular, HPβCD, a cyclodextrin presented as preferable in most of the literature described above and used in composition for inhalation by Magalhães et al., was selected for testing. […] The skilled person is familiar with Higuchi-Connors plots and how to obtain them, as described, e.g., in Higuchi T. and Connors, Advances in Analytical Chemistry and Instrumentation, 1965, 177-212.

CC[C@H](C)[C@H](NC(=O)[C@H](Cc1ccc(O)cc1)NC(=O)[C@@H](NC(=O)[C@H](CCCNC(=N)N)NC(=O)[C@@H](N)CC(=O)O)C(C)C)C(=O)N[C@@H](Cc1c[nH]cn1)C(=O)N1CCC[C@H]1C(=O)O [AT1-7, Asp-Arg-Val-Tyr-Ile-His-Pro]
solubilising effect of HPβCD on AT1-7: substantially no solubilising effect
